Results published in patent publication US20230240332A1, “METHOD FOR PREPARING AMINO ACID GRANULE FROM FERMENTATION BROTH” (CJ CHEILJEDANG CORPORATION, priority 2020, published 2023).

Test: Stability of tryptophan in fermentation broth with calcium added at molar ratio 0.4
Format: physicochemical
Conditions: calcium added at molar ratio of 0.4; increase in pH
Description: , respectively, in the same manner as in Examples 1-1 to 1-3 except that a tryptophan-containing fermentation broth having the composition disclosed in Table 2 was used, and the pH was 8.8 and 9.0, respectively. The sample of Comparative Example 2 was prepared by concentrating the tryptophan-containing fermentation broth without adding calcium hydroxide to the tryptophan-containing fermentation broth. […] The fermentation broth to which the slurry was added was concentrated to a degree of concentration of 30% (w/w) in Example 1-4 and a degree of concentration of 35% (w/w) in Example 1-5. It was confirmed that the fermentation broth gelled and lost fluidity when concentrated to a higher degree of concentration. At this time, in the case of the fermentation broth to which a slurry was not added, only a degree of concentration of about 25.5% (w/w) was achieved.

With `N[C@@H](Cc1c[nH]c2ccccc12)C(=O)O` [tryptophan] the decomposition of tryptophan was “decomposed into tryptamine, indole-acetate, and anthranilic acid”.
